SMILES strings stand for the structures.

The subject of this test is Plasmodium berghei. Description: Luciferase/luciferin-expressing antifolate-resistant parasites were used to infect a culture of HepG2 cells that were pre-incubated with compounds. Infected hepatocytes emit light due to the luciferase reaction. Assay results are presented as the percent inhibition of light emission compared to control. […]. It is filed as functional. As to conditions: sporozoite; for IC90: read-out: LUCIFERASE INFECTION ASSAY - IC90.

Where [1] appears, read: read-out: LUCIFERASE INFECTION ASSAY - IC50.

Take `O=C(Nc1ccc(-n2nncc2-c2ccccc2)cc1)c1ccc(S(=O)(=O)N2CCCCC2)cc1`: the IC90 was 9.56 µM. The IC50 (FFLUC_HILL_SLOPE 38.4, FFLUC_R_SQUARED 0.244, HEPG2TOX_HILL_SLOPE 8, HEPG2TOX_R_SQUARED 0.798, PBLUC_HILL_SLOPE 2.57, PBLUC_R_SQUARED 0.825, read-out: LUCIFERASE INFECTION ASSAY - IC50) amounted to 4.06 µM.

`Oc1cccc(-c2cnc3ccc(-c4cccc(C(F)(F)F)c4)nn23)c1`: the IC90 is more than 10 µM. The IC50 (PBLUC_HILL_SLOPE 3.46, PBLUC_R_SQUARED 0.251, read-out: LUCIFERASE INFECTION ASSAY - IC50) worked out at 6.43 µM.

Regarding `COc1ccccc1N(CCC#N)C(=O)COC(=O)/C=C/c1ccc(OC(F)F)cc1`, the IC90 is more than 10 µM. Besides, the IC50 under setting [1] is more than 10 µM.

For `CCc1cccc2c(C3=NNC(=Nc4cccc(S(=O)(=O)N(C)C)c4)SC3)c[nH]c12`, the IC90 was 3.4 µM. Also, for the setting “HEPG2TOX_HILL_SLOPE 2.11, HEPG2TOX_R_SQUARED 0.991, PBLUC_HILL_SLOPE 17, PBLUC_R_SQUARED 0.266, read-out: LUCIFERASE INFECTION ASSAY - IC50”, the half-maximal inhibitory concentration (IC50) is 2.99 µM.

On to `CCOC(=O)c1sc(N)c(C#N)c1CSc1nc(-c2ccccc2)cs1`, for which the IC90 amounted to 3.69 µM. For the setting “HEPG2TOX_HILL_SLOPE 1.34, HEPG2TOX_R_SQUARED 0.985, PBLUC_HILL_SLOPE 11.8, PBLUC_R_SQUARED 0.536, read-out: LUCIFERASE INFECTION ASSAY - IC50”, the IC50 is 3.06 µM.

With `COc1ccc(NCC2(c3ccnc(-c4ccccc4Cl)c3)CC2)cn1`, the IC90 was more than 10 µM. In addition, the IC50 (HEPG2TOX_HILL_SLOPE 2.53, HEPG2TOX_R_SQUARED 0.891, PBLUC_HILL_SLOPE 5.38, PBLUC_R_SQUARED 0.384, read-out: LUCIFERASE INFECTION ASSAY - IC50) came out at 7.39 µM.

Consider `Cc1ccccc1COC(=O)C1(NC(=O)NCc2ccccc2)CCCC1`, for which the IC90 was more than 10 µM. Further, under setting [1], the IC50 is more than 10 µM.

Take `Cc1cnc2c(S(=O)(=O)NCc3csc(-c4ccccc4)n3)cccc2c1`: the IC90 is more than 10 µM. In addition, the IC50 under setting [1] was more than 10 µM.

Regarding `COc1cc(/C=C2/C(=O)Nc3cc(Cl)ccc32)c([N+](=O)[O-])cc1OC(F)F`, the IC90 was determined as 4.58 µM. Further, the IC50 (HEPG2TOX_HILL_SLOPE 4.03, HEPG2TOX_R_SQUARED 0.974, PBLUC_HILL_SLOPE 1.79, PBLUC_R_SQUARED 0.765, read-out: LUCIFERASE INFECTION ASSAY - IC50) was found to be 1.34 µM.

Take `C/N=c1\scc(-c2ccccc2Br)n1/N=C/c1ccc[nH]1`: the IC90 was more than 10 µM. Further, where the note is “PBLUC_HILL_SLOPE 15, PBLUC_R_SQUARED 0.188, read-out: LUCIFERASE INFECTION ASSAY - IC50”, the IC50 was 9.68 µM.

Consider `COc1cccc(C(=O)Nc2nc3ccc(C)cn3c2C(=O)NC2CCCC2)c1`, for which the IC90 is 3.16 µM. Moreover, for the setting “HEPG2TOX_HILL_SLOPE 1.86, HEPG2TOX_R_SQUARED 0.913, PBLUC_HILL_SLOPE 11.1, PBLUC_R_SQUARED 0.319, read-out: LUCIFERASE INFECTION ASSAY - IC50”, the IC50 stood at 2.59 µM.

Consider `CCOC(=O)c1cc(C#N)c(C)nc1Sc1ccccc1NC(=O)Nc1ccc(SC(F)(F)F)cc1`, for which the IC90 is more than 6.2 µM. Moreover, the IC50 under setting [1] is more than 6.2 µM.

Consider `Cc1onc(-c2ccc(Cl)cc2Cl)c1-c1csc(N/N=C/c2ccccc2Cl)n1`, for which the IC90 is more than 7.12 µM. The IC50 (FFLUC_HILL_SLOPE 8.51, FFLUC_R_SQUARED 0.488, HEPG2TOX_HILL_SLOPE 2.88, HEPG2TOX_R_SQUARED 0.834, read-out: LUCIFERASE INFECTION ASSAY - IC50) was more than 7.12 µM.

Consider `Cc1cc(C)c(C#N)c(SCc2nc(-c3ccsc3)no2)n1`, for which the IC90 was determined as 0.328 µM. Further, for the setting “FFLUC_HILL_SLOPE 0.467, FFLUC_R_SQUARED 0.935, PBLUC_HILL_SLOPE 1.22, PBLUC_R_SQUARED 0.907, read-out: LUCIFERASE INFECTION ASSAY - IC50”, the half-inhibitory concentration (IC50) came to 0.0542 µM.

On to `CC(=O)NC1=C(N(C)C2CCS(=O)(=O)C2)C(=O)c2ccccc2C1=O` (stereo unspecified), for which the IC90 is more than 10 µM. The IC50 (FFLUC_HILL_SLOPE 10.5, FFLUC_R_SQUARED 0.371, PBLUC_HILL_SLOPE 1.29, PBLUC_R_SQUARED 0.482, read-out: LUCIFERASE INFECTION ASSAY - IC50) was found to be 5.96 µM.

As for `Cn1cc(CN2CCc3c(c(C(=O)NCc4nccs4)nn3Cc3ccccc3)C2)c2ccccc21`, the IC90 came to 5.73 µM. For the same compound, the IC50 (HEPG2TOX_HILL_SLOPE 6.66, HEPG2TOX_R_SQUARED 0.254, PBLUC_HILL_SLOPE 4.38, PBLUC_R_SQUARED 0.819, read-out: LUCIFERASE INFECTION ASSAY - IC50) was 3.47 µM.

As for `NC(=O)N/N=C/c1ccc(Cl)cc1`, the IC90 is more than 16.7 µM. Also, under setting [1], the IC50 is more than 16.7 µM.

For `O=C(Nc1cccc(C(F)(F)F)c1)Nc1ncc([N+](=O)[O-])s1`, the IC90 was 2.73 µM. Where the note is “HEPG2TOX_HILL_SLOPE 2.24, HEPG2TOX_R_SQUARED 0.981, PBLUC_HILL_SLOPE 1.72, PBLUC_R_SQUARED 0.576, read-out: LUCIFERASE INFECTION ASSAY - IC50”, the IC50 stood at 0.759 µM.

For the compound `CC(C)c1cccc(C(C)C)c1NC(=O)COc1ccc(CCO)cc1-n1nc2ccccc2n1`, the IC90 was found to be 6.85 µM. For the same compound, under “FFLUC_HILL_SLOPE 16.3, FFLUC_R_SQUARED 0.284, PBLUC_HILL_SLOPE 3.54, PBLUC_R_SQUARED 0.756, read-out: LUCIFERASE INFECTION ASSAY - IC50”, the IC50 turned out to be 3.68 µM.

On to `CN(c1ccccc1)S(=O)(=O)c1ccc(NC(=O)c2cccs2)cc1`, for which the IC90 worked out at 8.27 µM. Also, the IC50 (PBLUC_HILL_SLOPE 1.98, PBLUC_R_SQUARED 0.132, read-out: LUCIFERASE INFECTION ASSAY - IC50) came to 2.73 µM.

`CCOC(=O)C1=C(C)NC(C)=C(C(=O)OCC)C1c1ccc(-c2cc(C(F)(F)F)cc(C(F)(F)F)c2)o1`: the concentration for an effect of 90% (IC90) is more than 6.21 µM. Also, the IC50 (FFLUC_HILL_SLOPE 13.3, FFLUC_R_SQUARED 0.16, read-out: LUCIFERASE INFECTION ASSAY - IC50) is more than 6.21 µM.

Regarding `Cc1ccccc1/N=C1\SCC(C)(C)N1C(=O)c1ccccc1OCc1ccccc1`, the IC90 is more than 10 µM. The IC50 under setting [1] was more than 10 µM.

On to `Cc1ccc(C(=O)NC(C)C)n1C`, for which the IC90 came out at 0.447 µM. The IC50 (PBLUC_HILL_SLOPE 12.7, PBLUC_R_SQUARED 0.475, read-out: LUCIFERASE INFECTION ASSAY - IC50) amounted to 0.376 µM.

Turning to `COc1ccc(CCC(=O)NNC(=O)c2ccc3ccccc3n2)cc1Br`, the IC90 came out at 5.65 µM. Also, the IC50 (PBLUC_HILL_SLOPE 3.11, PBLUC_R_SQUARED 0.471, read-out: LUCIFERASE INFECTION ASSAY - IC50) was determined as 2.79 µM.

For the compound `Cc1ccc2nc(NC(=O)c3cccc(Cl)c3Cl)c(C(=O)NC3CCCC3)n2c1`, the IC90 was more than 7.65 µM. For the same compound, the 50% inhibitory concentration (IC50) under setting [1] is more than 7.65 µM.

On to `N=C1C(=S)N(c2ccc(Cl)c(Cl)c2)C(=O)N1c1ccc(Cl)c(Cl)c1`, for which the IC90 was more than 7.87 µM. In addition, the IC50 under setting [1] is more than 7.87 µM.

For the compound `O=C(NCCc1cccs1)N1CCc2nc(NCc3cccc(Oc4ccccc4)c3)ncc2C1`, the IC90 was more than 6.8 µM. The IC50 under setting [1] is more than 6.8 µM.

Regarding `OCc1ccc(-c2cnc3ccc(-c4cccc(OC(F)(F)F)c4)nn23)cc1`, the IC90 worked out at 3.46 µM. Moreover, where the note is “FFLUC_HILL_SLOPE 15.5, FFLUC_R_SQUARED 0.126, HEPG2TOX_HILL_SLOPE 8.34, HEPG2TOX_R_SQUARED 0.955, PBLUC_HILL_SLOPE 1.79, PBLUC_R_SQUARED 0.869, read-out: LUCIFERASE INFECTION ASSAY - IC50”, the IC50 came out at 1.01 µM.

Turning to `CCc1cc[n+](CC(=O)Nc2cc3oc4ccccc4c3cc2OC)cc1`, the IC90 was 9.36 µM. For the same compound, where the note is “HEPG2TOX_HILL_SLOPE 8.94, HEPG2TOX_R_SQUARED 0.562, PBLUC_HILL_SLOPE 18.1, PBLUC_R_SQUARED 0.422, read-out: LUCIFERASE INFECTION ASSAY - IC50”, the IC50 amounted to 8.29 µM.

For `Cc1c(Sc2ccc(F)cc2)c2ccccn2c1/C(=N\S(=O)(=O)c1cccs1)c1ccccc1`, the IC90 is more than 10 µM. In addition, the IC50 under setting [1] was more than 10 µM.

As to `CCO/C=N/Nc1nc(C(F)(F)F)nc2c1cnn2-c1ccccc1`, the IC90 was more than 10 µM. Besides, under “FFLUC_HILL_SLOPE 12.8, FFLUC_R_SQUARED 0.468, PBLUC_HILL_SLOPE 1.59, PBLUC_R_SQUARED 0.442, read-out: LUCIFERASE INFECTION ASSAY - IC50”, the IC50 amounted to 4.62 µM.

As to `COc1ccccc1-n1cnnc1SCC(=O)NC(C)c1ccc(CC(C)C)cc1` (stereo unspecified), the IC90 was more than 10 µM. In addition, the IC50 under setting [1] is more than 10 µM.

Regarding `C=C(C)c1ccccc(=O)c1O`, the IC90 was more than 20.3 µM. In addition, the IC50 under setting [1] was more than 20.3 µM.

`Cc1ccc(NC(=O)c2cnn(-c3cccc(Cl)c3)c2C(C)C)nc1`: the IC90 is 4.3 µM. For the setting “PBLUC_HILL_SLOPE 12, PBLUC_R_SQUARED 0.586, read-out: LUCIFERASE INFECTION ASSAY - IC50”, the IC50 was found to be 3.58 µM.

`CN(C)c1ccc(/C=C/c2ccc3ccccc3[n+]2C)cc1`: the IC90 is 2.35 µM. The IC50 (HEPG2TOX_HILL_SLOPE 1.22, HEPG2TOX_R_SQUARED 0.944, PBLUC_HILL_SLOPE 2.39, PBLUC_R_SQUARED 0.798, read-out: LUCIFERASE INFECTION ASSAY - IC50) worked out at 0.935 µM.

For the compound `Cc1ccc(-c2cnn3c(NCCN(C)C)cc(C)nc23)cc1`, the IC90 came to 10.6 µM. Further, where the note is “PBLUC_HILL_SLOPE 1.98, PBLUC_R_SQUARED 0.569, read-out: LUCIFERASE INFECTION ASSAY - IC50”, the IC50 is 3.5 µM.

On to `C=CCNc1nnc(SCC(=O)Nc2c(Cl)cc(Cl)cc2C(=O)O)s1`, for which the IC90 was more than 10 µM. The IC50 under setting [1] was more than 10 µM.

Turning to `CCNC(=O)C1CCCN(CCOc2ccc(Cl)cc2)CC1` (stereo unspecified), the IC90 is more than 10.2 µM. In addition, the IC50 under setting [1] was more than 10.2 µM.
